Results on ten compounds are retold here after patent publication US9890185B2, “Urea derivatives useful as kinase inhibitors” (Respivert Limited, priority 2013, dated 2018).

Test [1] relates to PBMCs. Description: Cell mitosis assay in PBMCs (assay g). The class given is cell-based. Conditions: Homo sapiens, PBMC, test compound 5 μg/mL. The method, then:
Peripheral blood mononucleocytes (PBMCs) from healthy subjects are separated from whole blood (Quintiles, London, UK) using a density gradient (Histopaque®-1077, Sigma-Aldrich, Poole, UK). The PBMCs (3 million cells per sample) are subsequently treated with 2% PHA (phytohaemagglutinin, Sigma-Aldrich, Poole, UK) for 48 hr, followed by a 20 hr exposure to varying concentrations of test compounds. At 2 hr before collection, PBMCs are treated with demecolcine (0.1 μg/mL; Invitrogen, Paisley, UK) to arrest cells in metaphase. To observe mitotic cells, PBMCs are permeabilised and fixed by adding Intraprep (50 μL; Beckman Coulter, France), and stained with anti-phospho-histone 3 (0.26 ng/L; #9701; Cell Signalling, Danvers, Mass.) and propidium iodide (1 mg/mL; Sigma-Aldrich, Poole, UK) as previously described (Muehlbauer P. A. and Schuler M. J., Mutation Research, 2003, 537:117-130). Fluorescence is observed using an ATTUNE flow cytometer (Invitrogen, Paisley, UK), gating for lymphocytes. The percentage inhibition of mitosis is calculated for each treatment relative to vehicle (0.5% DMSO) treatment.

Test [2] concerns the target Syk (Homo sapiens (Human), UniProt P43405). As to the kind of experiment: Syk enzyme inhibition (FRET, Z-LYTE). It counts as biochemical. The procedure, abridged: (§1)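 Fluorescence-ratio kinase assay: 2 hr compound–enzyme preincubation at RT, 1 hr reaction with ATP added as 800 μM (c-Src) or 60 μM (Syk) solution. IC50 derived from percent inhibition curves.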
Test [3] concerns PBMCs. As to the kind of experiment: IFN gamma release in CD3/CD28 stimulated PBMC cells (assay c). It counts as cell-based. Particulars: Homo sapiens, read-out: IC50 Values for Inhibition of Cytokine Release, PBMCs IFNγ. As for the experimental part: (§2) PBMCs from healthy subjects are separated from whole blood using a density gradient (Lymphoprep, Axis-Shield Healthcare). Cells are added to a 96 well plate pre-coated with a mixture of CD3/CD28 monoclonal antibodies (0.3 μg/mL eBioscience and 3 μg/mL BD Pharmingen respectively). Compound at the desired concentration is then added to the wells and the plate left for 3 days under normal tissue culture conditions. Supernatants are harvested and IL-2 and IFN gamma release determined by Sandwich ELISA (Duo-set, R&D System). The IC50 is determined from the dose response curve.

For test [4], the target named is GSK 3α (Homo sapiens (Human), UniProt P49840). Description: GSK 3α enzyme inhibition (FRET, Z-LYTE, Method 2). Conditions: read-out: IC50 Values for Enzyme Inhibition, GSK3α. It counts as biochemical. In short, it runs like this: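 Phosphorylation of a dual-labelled synthetic peptide by human GSK3α is read as a coumarin/fluorescein ratio after protease development. Compound stocks run 4 to 0.004 μg/mL, and ATP stock is 40 μM.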
GSK 3α, sequence (P49840 whole entry): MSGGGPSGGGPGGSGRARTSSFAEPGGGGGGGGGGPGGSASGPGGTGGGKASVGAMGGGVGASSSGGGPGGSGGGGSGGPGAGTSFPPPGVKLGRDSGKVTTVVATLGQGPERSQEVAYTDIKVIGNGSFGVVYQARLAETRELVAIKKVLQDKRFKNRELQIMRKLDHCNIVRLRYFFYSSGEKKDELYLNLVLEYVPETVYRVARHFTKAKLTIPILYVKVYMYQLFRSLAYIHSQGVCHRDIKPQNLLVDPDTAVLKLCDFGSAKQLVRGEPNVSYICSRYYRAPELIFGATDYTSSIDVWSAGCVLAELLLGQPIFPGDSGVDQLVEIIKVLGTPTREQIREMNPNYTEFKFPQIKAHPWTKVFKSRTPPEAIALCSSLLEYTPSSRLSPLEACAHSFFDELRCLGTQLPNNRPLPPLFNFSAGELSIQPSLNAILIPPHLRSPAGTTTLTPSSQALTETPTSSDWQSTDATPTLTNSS

Test [5] deals with PBMCs. As to the kind of experiment: IL-2 release in CD3/CD28 stimulated PBMC cells (assay c). The class given is cell-based. Conditions: Homo sapiens, read-out: IC50 Values for Inhibition of Cytokine Release, PBMCs IL-2. The method, then: as §2
The test system of test [6] is d-U937 cells. Description: Accumulation of β catenin in d-U937 cells (assay m). Conditions: percentage relative to Reference Compound at 1 μg/mL. The class given is cell-based, human. In short, it runs like this:
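PMA-differentiated (100 ng/mL, 48–72 hr) human U937 macrophage-type cells treated with test compound or vehicle for 18 hr. β-catenin measured by in-cell ELISA (anti-β-catenin, HRP secondary, TMB, OD450–655). Signal corrected for cell number by dividing by crystal violet OD595.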

Test [7] has as its system PBMCs. As to the kind of experiment: LPS-induced IL-8 release in PBMC cells (assay b). The class given is cell-based, human. Particulars: Homo sapiens, PBMC; LPS-stimulated PBMCs; read-out: IC50 Values for Inhibition of Cytokine Release, PBMCs IL-8. In short, it runs like this:
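Human PBMCs from healthy donors, isolated by density gradient, were pretreated with compound for 2 h and then stimulated with 1 ng/mL LPS (E. coli 0111:B4) for 24 h at 37° C, 5% CO2. Supernatant IL-8 and TNFα were measured by sandwich ELISA, and IC50 was taken from the dose-response curve.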

For test [8], the target named is c-Src (Homo sapiens (Human), UniProt P12931). Description: c-Src enzyme inhibition (FRET, Z-LYTE). The class given is biochemical. In short, it runs like this: as §1
c-Src, sequence (P12931 whole entry, looked up, canonical isoform): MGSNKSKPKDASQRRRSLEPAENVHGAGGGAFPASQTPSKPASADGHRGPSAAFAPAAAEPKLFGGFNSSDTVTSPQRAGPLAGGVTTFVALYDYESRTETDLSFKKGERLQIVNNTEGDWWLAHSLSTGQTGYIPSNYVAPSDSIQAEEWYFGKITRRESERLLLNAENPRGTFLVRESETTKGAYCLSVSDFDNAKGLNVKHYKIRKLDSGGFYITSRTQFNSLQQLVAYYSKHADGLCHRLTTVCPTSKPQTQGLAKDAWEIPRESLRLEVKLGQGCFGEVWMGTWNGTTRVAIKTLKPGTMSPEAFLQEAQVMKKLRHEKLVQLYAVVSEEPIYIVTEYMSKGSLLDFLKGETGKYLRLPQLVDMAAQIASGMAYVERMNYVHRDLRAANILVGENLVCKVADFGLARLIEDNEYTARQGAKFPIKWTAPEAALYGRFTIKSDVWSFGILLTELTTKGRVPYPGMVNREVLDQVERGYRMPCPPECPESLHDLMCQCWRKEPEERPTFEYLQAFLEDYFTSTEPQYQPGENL
Test [9] has as its target p38 MAPKα isoform (MAPK14) (Homo sapiens (Human), UniProt Q16539). As to the kind of experiment: p38 MAPKα enzyme inhibition (FRET, Z-LYTE, Method 2). The class given is biochemical. In short, it runs like this: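 Z-LYTE FRET: p38 MAPKα (80 ng/mL for Method 1, 200 ng/mL for Method 2, pre-dilution) preincubated 2 hr RT with compound (4–0.004 μg/mL solutions), activity read via MAPKAP-K2 phosphorylation after 1 hr RT and 1 hr protease development. Coumarin/fluorescein ratio gives phosphorylation; % inhibition versus uninhibited control, IC50 from concentration-response curve.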

p38 MAPKα isoform (MAPK14), sequence (Q16539 whole entry, canonical isoform): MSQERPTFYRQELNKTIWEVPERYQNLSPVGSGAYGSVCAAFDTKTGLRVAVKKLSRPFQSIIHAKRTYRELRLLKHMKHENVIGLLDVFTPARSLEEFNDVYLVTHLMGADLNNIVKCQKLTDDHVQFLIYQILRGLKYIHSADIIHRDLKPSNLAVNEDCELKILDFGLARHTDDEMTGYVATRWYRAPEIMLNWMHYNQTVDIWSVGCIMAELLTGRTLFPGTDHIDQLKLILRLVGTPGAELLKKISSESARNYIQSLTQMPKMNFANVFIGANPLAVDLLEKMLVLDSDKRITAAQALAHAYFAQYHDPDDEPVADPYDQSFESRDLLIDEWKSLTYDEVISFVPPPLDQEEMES

As for `COc1c(NC(=O)Nc2ccc(Oc3ccnc(Nc4cnccn4)c3)c3ccccc23)cc(C(C)(C)C)cc1P(C)(C)=O` [15(aa), 1-(5-(tert-butyl)-3-(dimethylphosphoryl)-2-methoxyphenyl)-3-(4-((2-(pyrazin-2-ylamino)pyridin-4-yl)oxy)naphthalen-1-yl)urea], the inhibition at 5 µg/mL in test [1] was 98.1%. The half-inhibitory concentration (IC50) in [2] came out at 114 nM; in test [3] it was 14.7 nM; in test [4], 192 nM; in [5] it was 58.6 nM; in [7], 0.8 nM; in [8], 46 nM. Further, the “% β-catenin induction” value in test [6] (test compound 1 μg/mL) is listed as 50.5%; in test [6] (test compound 5 μg/mL), 58.5%; in test [6] (test compound 10 μg/mL) it was 49.5%.

With `COc1c(NC(=O)Nc2ccc(Oc3ccnc(Nc4ccccc4)c3)c3ccccc23)cc(C(C)(C)C)cc1OCP(C)(C)=O` [15(e), 1-(5-(tert-butyl)-3-((dimethylphosphoryl)methoxy)-2-methoxyphenyl)-3-(4-((2-(phenylamino)pyridin-4-yl)oxy)naphthalen-1-yl)urea], the IC50 in [2] came to 551 nM; in test [3] it was 60.4 nM; in [4] it was 2890 nM; in test [5], 25.6 nM; in test [7], 4.7 nM; in [9] it was 360 nM. The compound also registered a concentration for half-maximal inhibition (IC50) in test [8] of 120 nM. Also, the “% β-catenin induction” value in [6] (test compound 1 μg/mL) is on record as 2.0%; in test [6] (test compound 5 μg/mL), 20.5%; in test [6] (test compound 10 μg/mL), 32.5%.

Turning to `COc1cccc(Nc2cc(Oc3ccc(NC(=O)Nc4cc(C(C)(C)C)cc(CC(N)=O)c4OC)c(Cl)c3Cl)ccn2)c1` [38(af), 2-(5-(tert-Butyl)-3-(3-(2,3-dichloro-4-((2-((3-methoxyphenyl)amino)pyridin-4-yl)oxy)phenyl)ureido)-2-methoxyphenyl)acetamide], in [1], testing at 5 µg/mL gave an inhibition of 89.3%. Besides, the IC50 was found to be 249 nM in test [2]; 4.5 nM in test [3]; 1010 nM in test [4]; 63.3 nM in test [5]; 2.6 nM in test [7]; 44 nM in test [8].

As for `COc1cc(Nc2cc(Oc3ccc(NC(=O)Nc4cc(C(C)(C)C)cc(CC(N)=O)c4OC)c4ccccc34)ccn2)cc(S(N)(=O)=O)c1` [38(ai), 2-(5-(tert-Butyl)-2-methoxy-3-(3-(4-((2-((3-methoxy-5-sulfamoylphenyl)amino)pyridin-4-yl)oxy)naphthalen-1-yl)ureido)phenyl)acetamide], in test [1], at 5 µg/mL the inhibition was 67.6%. For the same compound, the IC50 is 11.1 nM in [3], 885 nM in test [4], 91.7 nM in test [5] and 1.6 nM in test [7].

`COc1cc(Nc2cc(Oc3ccc(NC(=O)Nc4cc(C(C)(C)C)cc(P(C)(C)=O)c4OC)c4ccccc34)ccn2)ccc1C(=O)NCCN1CCOCC1` [38(ao), 4-((4-((4-(3-(5-(tert-Butyl)-3-(dimethylphosphoryl)-2-methoxyphenyl)ureido)naphthalen-1-yl)oxy)pyridin-2-yl)amino)-2-methoxy-N-(2-morpholinoethyl)benzamide]: the inhibition at 5 µg/mL in [1] worked out at 78%. Also, the IC50 is 15.7 nM in test [3], 3270 nM in [4], 219 nM in test [5] and 2.7 nM in [7].

Compound `COc1cc(Nc2cc(Oc3ccc(NC(=O)Nc4cc(C(C)(C)C)cc(CNC(C)=O)c4OC)c4ccccc34)ccn2)cc(C(=O)NCCN2CCOCC2)c1` [38(t), 3-((4-((4-(3-(3-(Acetamidomethyl)-5-(tert-butyl)-2-methoxyphenyl)ureido)naphthalen-1-yl)oxy)pyridin-2-yl)amino)-5-methoxy-N-(2-morpholinoethyl)benzamide] returned an inhibition at 5 µg/mL in test [1] of 77.3%. Further, the IC50 in test [3] was found to be 7.4 nM; in test [4] it was 839 nM; in [5], 288 nM; in test [7], 0.7 nM.

In the case of `COc1cc(Nc2nccc(Oc3ccc(NC(=O)Nc4cc(C(C)(C)C)cc(P(C)(C)=O)c4OC)c4ccccc34)n2)cc(OC)c1` [Example 18, 1-(5-(tert-Butyl)-3-(dimethylphosphoryl)-2-methoxyphenyl)-3-(4-((2-((3,5-dimethoxyphenyl)-amino)pyrimidin-4-yl)oxy)naphthalen-1-yl)urea], the IC50 came out at 69 nM in test [2]; 8.2 nM in [3]; 1310 nM in [4]; 19.4 nM in test [5]; 2.1 nM in test [7]; 218 nM in test [9]. Further, in test [8], inhibition was half-maximal at 15 nM (IC50). Also, the “% β-catenin induction” value in test [6] (test compound 1 μg/mL) was 6.5%; in test [6] (test compound 5 μg/mL), 35.5%; in [6] (test compound 10 μg/mL), 39.0%.

`COc1c(CNC(C)=O)cc(C(C)(C)C)cc1NC(=O)Nc1ccc(Oc2ccnc(Nc3cc(C#N)cc(OCCN4CCOCC4)c3)c2)c2ccccc12` [Example 50, N-(5-(tert-Butyl)-3-(3-(4-((2-((3-cyano-5-(2-morpholinoethoxy)phenyl)amino)pyridin-4-yl)oxy)naphthalen-1-yl)ureido)-2-methoxybenzyl)acetamide] had an inhibition at 5 µg/mL in test [1] of 57.7%. The IC50 in test [2] worked out at 799 nM; in test [3], 0.9 nM; in test [4] it was 3270 nM; in test [5] it was 30.1 nM; in [7], 1.2 nM; in test [8], 40 nM.

The compound `COc1cc(Nc2cc(Oc3ccc(NC(=O)Nc4cc(C(C)(C)C)cc(C(=O)NCCN5CCOCC5)c4OC)c4ccccc34)ccn2)cc(C(N)=O)c1` [Example 61, 5-(tert-Butyl)-3-(3-(4-((2-((3-carbamoyl-5-methoxyphenyl)amino)pyridin-4-yl)oxy)naphthalen-1-yl)ureido)-2-methoxy-N-(2-morpholinoethyl)benzamide] had an inhibition at 5 µg/mL in [1] of 68.7%. The IC50 in test [3] came to 1.6 nM; in [4], 1610 nM; in test [5], 7.8 nM; in test [7] it was 1.9 nM; in [9] it was 211 nM.

In turn, `COc1cc(Nc2cc(Oc3ccc(NC(=O)Nc4cc(C(C)(C)C)cc(CC(N)=O)c4OC)c4ccccc34)ccn2)ccc1C(=O)NCCN1CCOCC1` [Example 70, 4-((4-((4-(3-(3-(2-Amino-2-oxoethyl)-5-(tert-butyl)-2-methoxyphenyl)ureido)naphthalen-1-yl)oxy)pyridin-2-yl)amino)-2-methoxy-N-(2-morpholinoethyl)benzamide] had an inhibition at 5 µg/mL in test [1] of 62.8%. In addition, the IC50 in [3] came out at 11.1 nM; in test [4] it was 2280 nM; in test [5], 98.1 nM; in test [7], 2.3 nM; in test [9], 28 nM.

What is called inhibition is the percentage by which the read-out fell short of the control. In general, IC50 refers to the concentration needed to halve the response being measured.
